Experimental data reported in patent US9994533B2, “Method of preparing ATG's analogue, and the application of ATG and it's analogue” (Longhua Hospital Shanghai University of Traditional Chinese …, priority 2016, dated 2018).

Experiments:
NOX4 [1] = assay: NOX4 protein expression in glomeruli of STZ-eNOS−/− mice (Western Blot); type: in vivo; settings: for NOX4/GAPDH mean: glomeruli, Western Blot
From the text: The detection method of Western Blot and mRNA used in the present embodiment is a detection method commonly used by person skilled in the art, and the specific detection method is described in “Molecular Biology Laboratory Manual” (People's Military Medical Press, published in 2011 Jun. 1). 2. ATG can decrease NOX4's protein and mRNA expression in glomeruli of STZ-eNOS^−/− mice.

NOX4 gene = assay: NOX4 mRNA expression in glomeruli of STZ-eNOS−/− mice (RT-PCR); type: in vivo; settings: FIG. 5
From the text: The detection method of Western Blot and mRNA used in the present embodiment is a detection method commonly used by person skilled in the art, and the specific detection method is described in “Molecular Biology Laboratory Manual” (People's Military Medical Press, published in 2011 Jun. 1). Further, the mRNA of the glomeruli was extracted and subjected to RT-PCR.

NOX4 [2] = assay: NOX4 protein expression in mouse primary endothelial cells under high glucose (Western blot); type: cell-based
From the text: The detection method of Western Blot and mRNA used in the present embodiment is a detection method commonly used by person skilled in the art, and the specific detection method is described in “Molecular Biology Laboratory Manual” (People's Military Medical Press, published in 2011 Jun. 1). 3.2 Western blot and Realtime PCR confirmed that ATG could inhibit the overexpression of NOX4 in mouse's primary endothelial cells. The dose of 1 and 10 μmol/L corresponds to the last two bands.

NOX4 mRNA = NOX4 mRNA expression in human immortal podocytes under high glucose (Realtime PCR); type: cell-based; settings: FIG. 7
From the text: The detection method of Western Blot and mRNA used in the present embodiment is a detection method commonly used by person skilled in the art, and the specific detection method is described in “Molecular Biology Laboratory Manual” (People's Military Medical Press, published in 2011 Jun. 1). 3.1 Western blot and Realtime PCR confirmed that ATG in human immortal podocytes can inhibit the overexpression of NOX4 caused by high glucose stimuli, see table 5 and FIG. 6. The expression of NOX4 in the total protein, membrane protein and mitochondrial protein of human immortal podocytes was detected in the experiment.

[3] = test system: diabetic kidney disease mice; assay: Proteinuria in STZ-induced diabetic nephropathy mice; type: in vivo; settings: 40 mg/kg oral once daily
Procedure: When the mice were 6 weeks of age, streptozotocin (STZ)-induced diabetic nephropathy models were started by tail vein injection. The specific method is: STZ in accordance with the amount of 50 mg/kg is injected in tail vein. 72 hours after the injection, determine whether the modeling is successful by determining the level of blood glucose and urine. When the blood glucose level is more than 16 mmol/L and urine glucose level is between +++ and ++++, the model was considered successful. After 10 weeks of STZ injection, ATG was orally administered at a dose of 40 mg/kg once daily. The control group was given the same volume of DMSO (dimethyl sulfoxide) orally. Treatment was for 8 weeks. Urine protein levels were measured in each group. The number of the mice in each group is 10 in Table 3. […] ACEI: angiotensin converting enzyme inhibitors; ARBs: angiotensin receptor blockers.

COc1cc(C[C@H]2C(=O)OC[C@@H]2Cc2ccc(OC)c(OC)c2)ccc1O [ATG, Arctigenin]
NOX4/GAPDH mean (NOX4 [1]; Normal group-ATG): 0.13
NOX4/GAPDH mean (NOX4 [1]; STZ-ATG): 0.14
NOX4's protein expression in glomerular, versus untreated group (NOX4 [1]; STZ-eNOS mice administered with ATG): significantly less than that of the untreated group
mRNA expression of NOX4 gene in glomeruli (NOX4 gene): significantly reduced
NOX4/B-Tubulin Mean (NOX4 [2]; ATG 1 uM): 0.18
NOX4/B-Tubulin Mean (NOX4 [2]; ATG 10 uM): 0.12
overexpression of NOX4 mRNA induced by high glucose (NOX4 mRNA): able to inhibit the overexpression of NOX4 mRNA
proteinuria (urine protein level) ([3]; Model group - ATG (STZ mice), 0 week): 0.98
proteinuria (urine protein level) ([3]; Model group - ATG (STZ mice), 1 week): 0.95
proteinuria (urine protein level) ([3]; Model group - ATG (STZ mice), 2 week): 1.10
proteinuria (urine protein level) ([3]; Model group - ATG (STZ mice), 3 week): 0.66
proteinuria (urine protein level) ([3]; Model group - ATG (STZ mice), 4 week): 0.66
proteinuria (urine protein level) ([3]; Model group - ATG (STZ mice), 5 week): 0.37
proteinuria (urine protein level) ([3]; Model group - ATG (STZ mice), 6 week): 0.22
proteinuria (urine protein level) ([3]; Model group - ATG (STZ mice), 7 week): 0.18
proteinuria (urine protein level) ([3]; Model group - ATG (STZ mice), 8 week): 0.18
proteinuria (urine protein level) ([3]; Normal group - ATG, 0 week): 0.12
proteinuria (urine protein level) ([3]; Normal group - ATG, 1 week): 0.11
proteinuria (urine protein level) ([3]; Normal group - ATG, 2 week): 0.18
proteinuria (urine protein level) ([3]; Normal group - ATG, 3 week): 0.12
proteinuria (urine protein level) ([3]; Normal group - ATG, 4 week): 0.16
proteinuria (urine protein level) ([3]; Normal group - ATG, 5 week): 0.18
proteinuria (urine protein level) ([3]; Normal group - ATG, 6 week): 0.12
proteinuria (urine protein level) ([3]; Normal group - ATG, 7 week): 0.14
proteinuria (urine protein level) ([3]; Normal group - ATG, 8 week): 0.13
effect on proteinuria ([3]; STZ mice, 8 weeks): significantly reduces proteinuria
effect on proteinuria compared with ACEI/ARBs ([3]; STZ mice, 8 weeks): superior to the ACEI/ARBs
